Reference: ChEMBL document CHEMBL1201862, “PubChem BioAssay data set” (2004)
Calls of active or inactive are those of the source.

Legend:
[1] = Luminescence-based cell-based high throughput dose response assay to identify activators of the DAF-12 from the parasite S. stercoralis (ssDAF-12).; assay type: functional
Transthyretin = Transthyretin (Homo sapiens, UniProt P02766); test: Luminescence-based cell-based high throughput dose response assay to identify activators of Transthyretin (TTR) transcription.; assay type: functional
[2] = target: Photoreceptor-specific nuclear receptor (Homo sapiens, UniProt Q9Y5X4); assay type: functional, cell-based;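 note: CHO-S cells with Gal4-NCOR and VP16-NR2E3 two-hybrid luciferase reporter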
[3] = Counterscreen for activators of the function of SWI/SNF related, matrix associated, actin dependent regulator of chromatin, subfamily a, member 2 (SMARCA2, BRM): Luminescence-based cell-based high throughput dose response assay to identify non-selective compounds using the VP16 reporter assay.; assay type: functional
Cytochrome P450 2C9 = Cytochrome P450 2C9 (Homo sapiens, UniProt P11712)
[4] = target: SWI/SNF-related matrix-associated actin-dependent regulator of chromatin subfamily A member 2 (Homo sapiens, UniProt P51531); test: Luminescence-based cell-based high throughput dose response assay to identify activators of the function of SWI/SNF related, matrix associated, actin dependent regulator of chromatin, subfamily a, member 2 (SMARCA2, BRM).; assay type: functional
cells = conditions: HEK293
Bcl-2-related protein A1 [5] = target: T1, Bcl-2-related protein A1 (Mus musculus, UniProt Q07440); test: Bfl-1 binding inhibitors, SAR follow-up, biochemical, fluorescence polarization (AID 1070)
T1 sequence (Q07440 whole entry): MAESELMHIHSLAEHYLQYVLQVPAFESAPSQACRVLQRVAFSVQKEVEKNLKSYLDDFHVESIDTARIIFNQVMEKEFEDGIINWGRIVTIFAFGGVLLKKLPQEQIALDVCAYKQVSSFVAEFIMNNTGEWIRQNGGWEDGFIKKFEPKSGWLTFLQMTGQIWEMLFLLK

Bcl-2-related protein A1 [6] = target: T1, Bcl-2-related protein A1; test: small-molecule antagonists of Bfl-1/BH3 interaction – biochemical, TR-FRET, mouse Bfl-1, confirmation (AID 621);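 note: TR-FRET binding of GST-Bfl-1 to FITC-labelled Bid peptide via terbium antibody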
[7] = target: Glyceraldehyde-3-phosphate dehydrogenase (Homo sapiens, UniProt P04406)
[8] = cervical cancer cell viability loss – HeLa, 24 h, plate reader, powder samples, set 3, cytotoxicity control, dose response (AID 651864); assay type: functional, cell-based
[9] = viability loss in Vero cells – cytotoxicity control for Vif-APOBEC3G degradation inhibitor project, dose response (AID 1117358); assay type: functional; conditions: Vero
Vero [10] = test: Vero cell viability after compound exposure – synthesized analogs, set II, cytotoxicity control for West Nile virus antiviral project, SAR follow-up (AID 2402); assay type: functional; conditions: Chlorocebus sabaeus
Kallikrein-7 = Kallikrein-7 (Homo sapiens, UniProt P49862); test: Fluorescence Intensity-based biochemical primary high throughput dose response assay to identify activators of kallikrein-7 (K7) zymogen.
[11] = viability loss in CEM21 cells – cell-based, plate reader, dry powder, cytotoxicity control, dose response (AID 687026); assay type: functional
[12] = inhibition of Env-driven cell fusion – HIV entry, plate reader, dry powder, dose response (AID 687023); assay type: functional, cell-based
[13] = inhibitors of non-replicating M. tuberculosis, dose response, luciferase, dry powder (AID 651620); assay type: functional; conditions: Mycobacterium tuberculosis
[14] = growth inhibition of replicating M. tuberculosis, dose response, counter-screen, dry powder, IC90 (AID 651617); assay type: functional; conditions: Mycobacterium tuberculosis
[15] = inhibitors of non-replicating M. tuberculosis, dose response, luciferase, dry powder (AID 651619); assay type: functional; conditions: Mycobacterium tuberculosis
[16] = target: Signal transducer and activator of transcription 1-alpha/beta (Homo sapiens, UniProt P42224); test: inhibition of STAT1 reporter activity – cell-based, NIH 3T3, luciferase reporter, dose response (AID 1396); assay type: functional
[17] = target: Luciferin 4-monooxygenase (Photinus pyralis, UniProt P08659); test: inhibition of purified Photinus pyralis luciferase – biochemical, luminescence, dose response (AID 1891)
[18] = Luminescence Cell-Based Dose Confirmation HTS to Identify Inhibitors of Platelet Dense Granule Release. [Related pubchem assays: 1663 (Primary HTS), 1678 (Summary of Project)]; assay type: functional
[19] = target: 1-phosphatidylinositol 4,5-bisphosphate phosphodiesterase beta-3 (Homo sapiens, UniProt Q01970); test: Fluorescence-based biochemical high throughput dose response assay to identify inhibitors of phospholipase C isozymes (PLC-B3).
[20] = target: 1-phosphatidylinositol 4,5-bisphosphate phosphodiesterase gamma-1 (Homo sapiens, UniProt P19174); test: Counterscreen for inhibitors of phospholipase C isozymes (PLC-B3): Fluorescence-based biochemical high throughput dose response assay to identify inhibitors of phospholipase C isozymes (PLC-gamma1).
[21] = target: Metabotropic glutamate receptor 7 (Homo sapiens, UniProt Q14831); test: potentiation of glutamate EC20 at mGlu7 – cell-based, calcium mobilization, Galpha15, dose response (AID 743384); assay type: functional
Phospholipase D2 = Phospholipase D2 (Homo sapiens, UniProt O14939); test: PLD2 Cellular Concentration Response Study.; assay type: functional
Phospholipase D1 = target: T2, Phospholipase D1 (Homo sapiens, UniProt Q13393); test: PLD1 Cellular Concentration Response Study.; assay type: functional
T2 sequence (Q13393 whole entry): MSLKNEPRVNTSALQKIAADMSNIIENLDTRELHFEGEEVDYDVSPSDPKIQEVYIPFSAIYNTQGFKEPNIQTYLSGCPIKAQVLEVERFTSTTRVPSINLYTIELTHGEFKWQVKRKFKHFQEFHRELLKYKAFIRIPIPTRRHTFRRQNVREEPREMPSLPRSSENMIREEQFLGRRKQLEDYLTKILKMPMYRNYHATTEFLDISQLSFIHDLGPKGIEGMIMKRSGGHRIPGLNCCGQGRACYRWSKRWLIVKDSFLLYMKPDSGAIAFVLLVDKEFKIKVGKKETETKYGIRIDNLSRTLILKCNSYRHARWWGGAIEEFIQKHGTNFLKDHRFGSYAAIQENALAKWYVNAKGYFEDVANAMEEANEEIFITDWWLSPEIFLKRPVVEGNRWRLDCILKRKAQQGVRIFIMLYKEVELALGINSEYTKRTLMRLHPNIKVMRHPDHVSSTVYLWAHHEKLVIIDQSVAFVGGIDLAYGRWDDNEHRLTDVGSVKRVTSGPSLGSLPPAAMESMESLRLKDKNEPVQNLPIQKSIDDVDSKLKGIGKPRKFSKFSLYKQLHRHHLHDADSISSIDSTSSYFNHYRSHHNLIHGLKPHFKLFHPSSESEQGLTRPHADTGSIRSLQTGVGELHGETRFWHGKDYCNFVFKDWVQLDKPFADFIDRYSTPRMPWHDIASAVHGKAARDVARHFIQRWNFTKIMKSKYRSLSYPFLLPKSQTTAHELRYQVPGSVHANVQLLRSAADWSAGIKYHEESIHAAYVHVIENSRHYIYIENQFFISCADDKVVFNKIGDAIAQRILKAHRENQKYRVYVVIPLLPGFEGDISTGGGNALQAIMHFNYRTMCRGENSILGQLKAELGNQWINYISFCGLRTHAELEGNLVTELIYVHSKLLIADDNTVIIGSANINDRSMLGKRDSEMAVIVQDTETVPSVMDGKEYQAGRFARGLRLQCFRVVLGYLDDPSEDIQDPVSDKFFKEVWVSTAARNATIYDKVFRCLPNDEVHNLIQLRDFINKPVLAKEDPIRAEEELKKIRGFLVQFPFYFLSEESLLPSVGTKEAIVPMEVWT

[22] = IC50 of Artemis nuclease activity blockers – biochemical, fluorescence intensity, dose response (AID 720701); assay type: functional;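 note: Artemis endonuclease enzyme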
H4 = test: Luminescence Cell-Based Dose Response HTS to Identify Activators of 5'UTR Stem-Loop Driven Prion Protein mRNA Translation in H4 Neuroglioblastoma Cells. [Related pubchem assays: 1829 (Project Summary), 1814 (Primary HTS)]; assay type: functional; conditions: Homo sapiens
[23] = Luminescence Cell-Based Dose Confirmation HTS to Identify Activators of 5'UTR Stem-Loop Driven Alpha-Synuclein mRNA Translation in H4 Neuroglioblastoma Cells. [Related pubchem assays: 1829 (Project Summary), 1814 (Primary HTS)]; assay type: functional
Vero [24] = test: viability of Vero cells under compound – cytotoxicity control for flavivirus capping enzyme inhibitors (AID 588742); assay type: functional; conditions: Chlorocebus sabaeus
[25] = Luminescence Cell-Based Dose Response HTS to Identify Activators of Luciferase Translation or Activity in H4 […] Cells. [Related pubchem assays: 1829 (Project Summary), 1814 (Primary HTS)]; assay type: functional
[26] = target: RNA-editing ligase 1, mitochondrial (Trypanosoma brucei brucei, UniProt P86926); test: inhibition of trypanosome RNA editing ligase – biochemical, fluorescence, Trypanosoma brucei, dose response (AID 1117295); assay type: functional
NADPH oxidase 1 = NADPH oxidase 1 (Homo sapiens, UniProt Q9Y5S8); test: Late-stage luminescence-based cell-based dose response assay to identify inhibitors of NADPH oxidase 1 (NOX1): Synthesized analogs 3.; assay type: functional
Bcl-2-related protein A1 [27] = target: T1, Bcl-2-related protein A1; test: displacement of Bid BH3 peptide from Bfl-1 – biochemical, fluorescence polarization, FITC-Bid, mouse, primary screen (AID 432)
[28] = target: T3, RNA-binding protein pos-1 (Caenorhabditis elegans, UniProt G5EF15); test: disruptors of C. elegans POS-1 RNA interaction – biochemical, fluorescence polarization, dose response (AID 1964);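 note: purified POS-1 fused to maltose binding protein made in E. coli; potency of compounds blocking POS-1 binding to fluorescent RNA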
T3 sequence (G5EF15 whole entry): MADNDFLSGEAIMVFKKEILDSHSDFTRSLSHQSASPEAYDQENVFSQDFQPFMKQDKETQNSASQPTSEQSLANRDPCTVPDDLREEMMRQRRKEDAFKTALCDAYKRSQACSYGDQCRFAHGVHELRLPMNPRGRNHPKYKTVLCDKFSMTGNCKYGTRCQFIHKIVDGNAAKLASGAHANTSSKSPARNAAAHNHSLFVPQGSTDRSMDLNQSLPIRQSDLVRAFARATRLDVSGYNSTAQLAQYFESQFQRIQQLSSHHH

[29] = target: T4, Zinc finger protein mex-5 (Caenorhabditis elegans, UniProt Q9XUB2); test: potency of MEX-5 RNA-binding blockers – biochemical, C. elegans, fluorescence polarization, dose response (AID 1960)
T4 sequence (Q9XUB2 whole entry): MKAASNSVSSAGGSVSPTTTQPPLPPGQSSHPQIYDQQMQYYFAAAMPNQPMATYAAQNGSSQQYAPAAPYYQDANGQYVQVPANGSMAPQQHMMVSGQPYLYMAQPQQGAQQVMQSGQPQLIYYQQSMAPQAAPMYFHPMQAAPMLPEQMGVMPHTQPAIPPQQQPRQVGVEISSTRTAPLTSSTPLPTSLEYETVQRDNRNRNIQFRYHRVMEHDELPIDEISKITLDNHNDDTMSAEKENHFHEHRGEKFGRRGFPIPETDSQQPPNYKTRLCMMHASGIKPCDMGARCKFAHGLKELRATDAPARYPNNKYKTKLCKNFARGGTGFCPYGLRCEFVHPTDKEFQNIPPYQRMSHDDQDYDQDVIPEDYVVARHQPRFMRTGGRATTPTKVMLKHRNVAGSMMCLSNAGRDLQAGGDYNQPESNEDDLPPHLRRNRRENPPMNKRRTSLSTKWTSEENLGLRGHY

Chain of Phospholipase D2 (O14939 whole entry): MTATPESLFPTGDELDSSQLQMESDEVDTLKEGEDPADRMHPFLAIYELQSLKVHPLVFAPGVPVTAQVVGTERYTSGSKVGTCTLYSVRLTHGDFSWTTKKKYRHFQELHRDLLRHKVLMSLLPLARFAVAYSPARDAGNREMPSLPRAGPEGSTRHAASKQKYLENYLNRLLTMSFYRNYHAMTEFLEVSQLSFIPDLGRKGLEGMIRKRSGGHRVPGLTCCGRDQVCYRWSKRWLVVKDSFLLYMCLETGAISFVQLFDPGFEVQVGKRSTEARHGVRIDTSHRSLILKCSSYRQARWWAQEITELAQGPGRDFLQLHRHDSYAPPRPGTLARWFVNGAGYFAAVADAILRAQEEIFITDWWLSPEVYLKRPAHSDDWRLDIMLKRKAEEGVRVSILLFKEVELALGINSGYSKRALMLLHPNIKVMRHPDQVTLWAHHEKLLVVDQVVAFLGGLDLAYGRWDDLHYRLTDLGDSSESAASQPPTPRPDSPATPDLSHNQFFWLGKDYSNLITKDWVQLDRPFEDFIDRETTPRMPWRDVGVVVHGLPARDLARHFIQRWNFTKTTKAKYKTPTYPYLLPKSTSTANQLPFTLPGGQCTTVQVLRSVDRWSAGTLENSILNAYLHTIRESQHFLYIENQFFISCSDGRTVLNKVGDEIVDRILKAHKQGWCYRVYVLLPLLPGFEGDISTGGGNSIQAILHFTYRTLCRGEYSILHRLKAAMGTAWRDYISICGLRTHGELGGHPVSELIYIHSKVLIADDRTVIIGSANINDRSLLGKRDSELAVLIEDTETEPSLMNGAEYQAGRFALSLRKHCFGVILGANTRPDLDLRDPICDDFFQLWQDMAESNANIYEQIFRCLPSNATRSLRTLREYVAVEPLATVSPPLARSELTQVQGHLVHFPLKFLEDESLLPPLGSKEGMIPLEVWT
Chain of Signal transducer and activator of transcription 1-alpha/beta (P42224 whole entry): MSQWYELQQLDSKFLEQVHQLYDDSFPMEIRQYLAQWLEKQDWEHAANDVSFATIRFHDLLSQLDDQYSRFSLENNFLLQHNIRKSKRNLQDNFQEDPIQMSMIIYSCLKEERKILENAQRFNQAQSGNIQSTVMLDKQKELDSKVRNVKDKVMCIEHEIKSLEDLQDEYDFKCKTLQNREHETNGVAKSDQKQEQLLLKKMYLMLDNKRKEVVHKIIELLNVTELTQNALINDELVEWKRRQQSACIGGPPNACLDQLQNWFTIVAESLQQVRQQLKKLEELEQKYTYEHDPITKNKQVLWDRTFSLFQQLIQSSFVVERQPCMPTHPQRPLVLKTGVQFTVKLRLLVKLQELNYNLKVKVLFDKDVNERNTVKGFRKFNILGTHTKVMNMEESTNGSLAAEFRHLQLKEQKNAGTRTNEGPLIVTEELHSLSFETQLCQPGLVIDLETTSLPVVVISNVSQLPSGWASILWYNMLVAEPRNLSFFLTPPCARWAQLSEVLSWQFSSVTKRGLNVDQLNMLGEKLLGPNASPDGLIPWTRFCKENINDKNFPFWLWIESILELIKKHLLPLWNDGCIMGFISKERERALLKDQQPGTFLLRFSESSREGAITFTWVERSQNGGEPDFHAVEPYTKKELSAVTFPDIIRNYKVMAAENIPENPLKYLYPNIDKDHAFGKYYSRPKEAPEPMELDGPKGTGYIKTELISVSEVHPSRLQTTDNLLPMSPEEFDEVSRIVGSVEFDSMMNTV
Chain of 1-phosphatidylinositol 4,5-bisphosphate phosphodiesterase beta-3 (Q01970 whole entry): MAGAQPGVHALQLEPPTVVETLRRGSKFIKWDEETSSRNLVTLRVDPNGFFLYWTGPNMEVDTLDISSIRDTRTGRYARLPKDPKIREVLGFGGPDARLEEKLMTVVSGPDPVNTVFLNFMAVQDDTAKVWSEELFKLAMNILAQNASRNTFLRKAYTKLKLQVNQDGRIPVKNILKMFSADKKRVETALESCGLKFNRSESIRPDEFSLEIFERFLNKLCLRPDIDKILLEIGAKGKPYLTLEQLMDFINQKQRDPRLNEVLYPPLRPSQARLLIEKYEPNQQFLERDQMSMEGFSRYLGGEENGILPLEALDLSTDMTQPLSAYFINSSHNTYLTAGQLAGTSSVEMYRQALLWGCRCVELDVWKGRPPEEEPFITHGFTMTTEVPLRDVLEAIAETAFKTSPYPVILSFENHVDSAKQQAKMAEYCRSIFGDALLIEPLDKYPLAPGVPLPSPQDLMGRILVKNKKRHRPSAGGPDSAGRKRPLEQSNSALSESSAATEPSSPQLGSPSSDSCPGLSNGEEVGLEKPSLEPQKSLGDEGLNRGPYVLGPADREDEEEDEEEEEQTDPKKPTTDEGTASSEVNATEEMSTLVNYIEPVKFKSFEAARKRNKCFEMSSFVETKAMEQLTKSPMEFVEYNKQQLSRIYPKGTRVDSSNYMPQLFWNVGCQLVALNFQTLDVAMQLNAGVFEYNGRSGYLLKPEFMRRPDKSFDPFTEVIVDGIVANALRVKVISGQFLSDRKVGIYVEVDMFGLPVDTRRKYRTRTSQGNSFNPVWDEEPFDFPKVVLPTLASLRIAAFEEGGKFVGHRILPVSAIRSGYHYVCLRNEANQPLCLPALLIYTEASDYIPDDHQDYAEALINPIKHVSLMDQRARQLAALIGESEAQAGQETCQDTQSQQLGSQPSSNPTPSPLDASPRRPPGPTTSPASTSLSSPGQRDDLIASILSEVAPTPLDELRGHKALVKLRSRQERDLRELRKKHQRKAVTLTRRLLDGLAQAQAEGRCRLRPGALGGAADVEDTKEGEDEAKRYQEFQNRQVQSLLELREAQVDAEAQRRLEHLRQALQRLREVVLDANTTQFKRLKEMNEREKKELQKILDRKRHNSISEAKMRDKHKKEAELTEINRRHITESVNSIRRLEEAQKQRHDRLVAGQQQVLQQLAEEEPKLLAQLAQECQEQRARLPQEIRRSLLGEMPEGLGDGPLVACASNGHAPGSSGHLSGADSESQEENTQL
Chain of Metabotropic glutamate receptor 7 (Q14831 whole entry): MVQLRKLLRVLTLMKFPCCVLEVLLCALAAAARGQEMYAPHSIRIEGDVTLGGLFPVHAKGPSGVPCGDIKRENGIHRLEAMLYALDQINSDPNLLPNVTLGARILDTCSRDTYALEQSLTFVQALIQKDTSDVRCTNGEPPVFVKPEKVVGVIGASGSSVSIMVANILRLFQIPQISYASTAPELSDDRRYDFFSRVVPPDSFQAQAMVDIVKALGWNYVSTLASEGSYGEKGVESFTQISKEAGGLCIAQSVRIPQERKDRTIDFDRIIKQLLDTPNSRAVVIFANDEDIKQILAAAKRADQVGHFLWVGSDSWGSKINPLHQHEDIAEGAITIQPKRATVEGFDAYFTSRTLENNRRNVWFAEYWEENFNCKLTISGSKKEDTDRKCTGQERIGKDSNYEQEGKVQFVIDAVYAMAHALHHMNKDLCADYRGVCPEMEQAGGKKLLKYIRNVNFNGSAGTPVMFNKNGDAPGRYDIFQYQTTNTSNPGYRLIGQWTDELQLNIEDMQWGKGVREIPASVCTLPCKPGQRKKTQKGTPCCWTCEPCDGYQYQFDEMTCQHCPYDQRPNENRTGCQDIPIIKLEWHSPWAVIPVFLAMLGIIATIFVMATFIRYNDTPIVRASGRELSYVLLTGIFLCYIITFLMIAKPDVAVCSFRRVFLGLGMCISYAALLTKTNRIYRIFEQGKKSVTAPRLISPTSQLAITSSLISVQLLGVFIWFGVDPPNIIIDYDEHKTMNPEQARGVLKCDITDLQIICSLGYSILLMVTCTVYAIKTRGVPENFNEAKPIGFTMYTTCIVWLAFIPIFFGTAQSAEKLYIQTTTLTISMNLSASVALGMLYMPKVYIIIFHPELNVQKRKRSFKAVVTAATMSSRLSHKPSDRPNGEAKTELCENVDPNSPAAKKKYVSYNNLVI
Chain of Cytochrome P450 2C9 (P11712 whole entry): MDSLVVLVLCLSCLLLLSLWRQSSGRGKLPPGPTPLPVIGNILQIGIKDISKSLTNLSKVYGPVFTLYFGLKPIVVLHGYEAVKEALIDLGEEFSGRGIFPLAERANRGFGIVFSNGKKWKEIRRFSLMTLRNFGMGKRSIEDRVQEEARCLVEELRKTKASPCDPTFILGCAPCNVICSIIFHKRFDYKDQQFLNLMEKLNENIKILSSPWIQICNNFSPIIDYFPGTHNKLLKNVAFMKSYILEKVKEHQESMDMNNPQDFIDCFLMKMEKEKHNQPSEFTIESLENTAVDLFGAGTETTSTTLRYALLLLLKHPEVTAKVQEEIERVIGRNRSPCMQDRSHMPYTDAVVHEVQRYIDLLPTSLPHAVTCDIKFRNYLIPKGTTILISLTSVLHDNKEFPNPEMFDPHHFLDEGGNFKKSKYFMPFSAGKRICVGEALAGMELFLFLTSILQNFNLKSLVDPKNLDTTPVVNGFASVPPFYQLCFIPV
Chain of Glyceraldehyde-3-phosphate dehydrogenase (P04406 whole entry): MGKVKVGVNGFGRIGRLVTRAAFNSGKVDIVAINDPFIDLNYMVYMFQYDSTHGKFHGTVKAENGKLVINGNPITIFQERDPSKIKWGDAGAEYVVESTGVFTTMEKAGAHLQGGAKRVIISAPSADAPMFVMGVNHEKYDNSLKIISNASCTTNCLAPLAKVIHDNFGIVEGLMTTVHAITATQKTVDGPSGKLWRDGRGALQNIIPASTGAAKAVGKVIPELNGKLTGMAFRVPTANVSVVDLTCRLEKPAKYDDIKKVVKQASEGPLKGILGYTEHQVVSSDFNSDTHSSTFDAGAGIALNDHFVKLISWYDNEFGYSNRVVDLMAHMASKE
Chain of Kallikrein-7 (P49862 whole entry): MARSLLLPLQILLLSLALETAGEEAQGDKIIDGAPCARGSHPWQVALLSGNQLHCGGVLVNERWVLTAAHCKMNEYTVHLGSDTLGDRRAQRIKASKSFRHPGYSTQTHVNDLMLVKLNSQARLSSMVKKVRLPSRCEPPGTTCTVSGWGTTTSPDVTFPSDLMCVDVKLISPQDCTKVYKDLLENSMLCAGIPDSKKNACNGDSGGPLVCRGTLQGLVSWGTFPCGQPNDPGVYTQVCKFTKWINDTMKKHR

SMILES: Cc1cnc(NC(=O)CCCc2nc3ccccc3s2)s1
- IC50 [1]: > 67.5 µM (inactive)
- EC50 (Transthyretin): > 167 µM (inactive)
- IC50 [2]: 0.563 µM (active)
- EC50 [3]: > 91.2 µM (inactive)
- AC50 (Cytochrome P450 2C9): 5.62 µM (inconclusive)
- EC50 [4]: > 91.2 µM (inactive)

SMILES: CC(C)Oc1cccc(OCCn2cnc3ccccc32)c1
- AC50 (cells): > 52 µM (inactive)

SMILES: Cc1cccc(N2C(=O)C(Cl)=C(N3CCN(C)CC3)C2=O)c1
- IC50 (Bcl-2-related protein A1 [5]): 12.6 µM (active)
- IC50 (Bcl-2-related protein A1 [6]): 10.8 µM (active)
- IC50 [7]: > 100 µM (not active)

SMILES: CCc1ccccc1NCc1ccc(N2CCCC2)cc1
- AC50 [8]: 149 µM (active)

SMILES: CCOc1cc(C)c(Cl)cc1S(=O)(=O)NCc1ccco1
- CC50 [9]: 27.7 µM (active)

SMILES: O=c1c2cc(I)ccc2nc2n1CCC2
- CC50 (Vero [10]): > 100 µM (active)

SMILES: CC1(C)CC(=O)C2=C(C1)c1c(ccc3ccccc13)NC2c1ccc(OCC(=O)O)cc1 (stereo not drawn)
- EC50 (Kallikrein-7): > 69.5 µM (inactive)

SMILES: Cc1noc(C)c1S(=O)(=O)Nc1cccc2c1O[C@@H](CN(C)Cc1ccc(C(F)(F)F)cc1)[C@@H](C)CN([C@H](C)CO)C2=O
- AC50 [11]: > 70 µM (inactive)
- AC50 [12]: 18.6 µM (active)

SMILES: c1ccc(-c2nnc(SCc3ccncc3)o2)cc1
- IC90 [13]: 31 µM (active)
- IC90 [14]: 250 µM (active)
- IC90 [15]: 31 µM (active)

SMILES: Cc1ccc(C2=NN=C(c3ccncc3)c3ccc4ccccc4c3N2)cc1
- IC50 [16]: 3.52 µM (active)

SMILES: Nc1ncnc2c1ncn2[C@@H]1O[C@H](COP(=O)(O)O)[C@@H](O)[C@H]1O
- EC50 [17]: 1.48 µM (active)
- EC50 [18]: 1.13 µM (active)
- IC50 [19]: > 122 µM (inactive)
- IC50 [20]: 13.2 µM (inactive)

SMILES: COC(=O)c1ccc(-n2c(C)cc(C(=O)CSCc3ccc(OC)cc3)c2C)cc1
- EC50 [21]: 1 µM (active)

SMILES: O=C(NCCN1CCC2(CC1)C(=O)NCN2Cc1ccccc1Cl)c1ccc2ccccc2c1
- IC50 (Phospholipase D2): 0.11 µM (active)
- IC50 (Phospholipase D1): 2.3 µM (active)

SMILES: O=C(Nc1ccc2oc(-c3cccc4ccccc34)nc2c1)c1nc[nH]n1
- IC50 [22]: 7.47 µM (active)
- EC50 (H4): 5.42 µM (active)
- EC50 [23]: 0.627 µM (active)
- CC50 (Vero [24]): > 40 µM (active)
- EC50 [25]: 15.8 µM (active)

SMILES: COC(=O)C1=C(C)N(Cc2cccc(C(F)(F)F)c2)C(NCc2ccc(OC)cc2)=NC1c1ccc(F)cc1 (stereo not drawn)
- IC50 [26]: > 96.6 µM (inactive)

SMILES: CN1c2ccc(Br)cc2Sc2cc(C(=O)c3ccccc3)ccc21
- IC50 (NADPH oxidase 1): > 20 µM (not active)

SMILES: CN1CC=C2C(C#N)=C(N)C(C#N)(C#N)[C@H](c3cccc(Cl)c3)C2C1 (stereo partly drawn)
- IC50 (Bcl-2-related protein A1 [6]): > 100 µM (not active)
- IC50 (Bcl-2-related protein A1 [27]): > 100 µM (not active)
- EC50 [28]: 12.5 µM (active)
- EC50 [29]: 11.6 µM (active)
